# Measurements taken from patent US9867799B2, “Diethyl-[6-(4-hydroxycarbamoyl-phenyl-carbamoyloxy-methyl)-naphthalen-2-yl-methyl]-ammonium chloride for use in the treatment of muscular dystrophy” (ITALFARMACO S.P.A., priority 2012, dated 2018).
# Key:
# [1] = Chromosomal aberration assay in vitro (genotoxicity); format: cell-based
# [2] = system: children with Systemic Onset Juvenile Idiopathic Arthritis; settings: 1.5 mg/kg/day for twelve weeks; cited from earlier work
# [3] = UDS test in vivo (genotoxicity)
# [4] = Micronucleus test in vivo (genotoxicity)
# mouse lymphoma = assay: Mouse lymphoma assay in vitro (genotoxicity); format: cell-based
# dogs, rats and monkeys = assay: Repeated dose toxicity studies; format: in vivo; settings: oral daily doses up to nine consecutive months
# Protocol: To date more than 500 patients (including 29 children) have been treated with Givinostat. Repeated dose toxicity studies were carried out in dogs, rats and monkeys. Oral daily doses of the drug were administered up to nine consecutive months. […] The “no adverse effect levels” (NOAEL) ranged from 10 to 25 mg/kg/day depending on the animal species and the duration of treatment.
# juvenile animals = assay: Juvenile animal toxicity (development and reproductive performance); format: in vivo; settings: 60 mg/kg/day
substance,measurement,setting,value
diethyl-[6-(4-hydroxycarbamoyl-phenyl-carbamoyloxy-methyl)-naphthalen-2-yl-methyl]-ammonium chloride [Givinostat],genotoxic effect,[1],No genotoxic effect
same,"ACR Pedi 30, 50 and 70 improvement",[2],approximately 70%
same,adverse effects,[2],"only a limited number of mild or moderate but short lasting, adverse effects"
same,genotoxic effect,[3],No genotoxic effect
same,genotoxic effect,[4],No genotoxic effect
same,genotoxic effect,mouse lymphoma,No genotoxic effect
same,tolerability / overt toxicity,"dogs, rats and monkeys",well tolerated with no overt toxicity at high doses
same,behavioural and physical development and reproductive performance of pups,juvenile animals,did not affect the behavioural and physical development and reproductive performance of pups
